# Where two headings read alike, the source gives them in different places.
# Tests used:
# [1] = tested on: H2122 (EGFR wt); assay: Proliferation (CellTiter-Glo), H2122; format: cell-based, human; settings: H2122, EGFR wt, 72 hours, read-out: GI50
# Protocol: (§2) The human cancer cell lines A549, A431, H3255, H1975, PC-9, HCC827, H23, H460, A549, H358 and H2122 cells were purchased from the American Type Culture Collection (ATCC) (Manassas, VA, USA). […] A549 and A431 were cultured in DMEM media (Corning, USA) with 10% FBS and supplemented with 2% L-glutamine and 1% pen/strep. H3255 was cultured in BEGM media (LONZA, USA) with 10% FBS and supplemented with 2% L-glutamine and 1% pen/strep.
# (§3) Cells were grown in 96-well culture plates (2500–3000/well). For adherent cell lines, compounds of various concentrations were added into the plates after cells were cultured for 12 hours. Cell proliferation was determined after treatment with compounds for 72 hours. Cell viability was measured using the CellTiter–Glo assay (Promega, USA), according to the manufacturer's instructions, and luminescence was measured in a multi-label reader (Envision, PerkinElmer, USA). Data were normalized to control groups (DMSO) and represented by the mean of three independent measurements with standard error <20%. GI50 values were calculated using Prism 5.0 (GraphPad Software, San Diego, CA).
# [2] = tested on: H358 (EGFR wt); assay: Proliferation (CellTiter-Glo), H358; format: cell-based, human; settings: H358, EGFR wt, 72 hours, read-out: GI50
# Protocol: as §2, §3
# [3] = tested on: H3255 (EGFR L858R); assay: Proliferation (CellTiter-Glo), H3255; format: cell-based, human; settings: H3255, EGFR L858R, 72 hours, read-out: GI50
# Protocol: as §2, §3
# [4] = tested on: HCC827 (EGFR Del19); assay: Proliferation (CellTiter-Glo), HCC827; format: cell-based, human; settings: HCC827, EGFR Del19, 72 hours, read-out: GI50
# Protocol: as §2, §3
# [5] = tested on: H23 (EGFR wt); assay: Proliferation (CellTiter-Glo), H23; format: cell-based, human; settings: H23, EGFR wt, 72 hours, read-out: GI50
# Protocol: as §2, §3
# [6] = tested on: H1975 (EGFR L858R/T790M); assay: Proliferation (CellTiter-Glo), H1975; format: cell-based, human; settings: H1975, EGFR L858R/T790M, 72 hours, read-out: GI50
# Protocol: as §2, §3
# [7] = tested on: PC-9 (EGFR Del19); assay: Proliferation (CellTiter-Glo), PC-9; format: cell-based, human; settings: PC-9, EGFR Del19, 72 hours, read-out: GI50
# Protocol: as §2, §3
# [8] = tested on: A549 (EGFR wt); assay: Proliferation (CellTiter-Glo), A549; format: cell-based, human; settings: A549, EGFR wt, 72 hours, read-out: GI50
# Protocol: as §2, §3
# [9] = tested on: A431 (EGFR wt); assay: Proliferation (CellTiter-Glo), A431; format: cell-based, human; settings: A431, EGFR wt, 72 hours, read-out: GI50
# Protocol: as §2, §3
# [10] = tested on: H460 (EGFR wt); assay: Proliferation (CellTiter-Glo), H460; format: cell-based, human; settings: H460, EGFR wt, 72 hours, read-out: GI50
# Protocol: as §2, §3
# [11] = tested on: H1975 cells; settings: DMSO = 100
# Protocol: as §3
# [12] = tested on: H1975 cells; assay: cells; settings: Homo sapiens, NCI-H1975, read-out: Relative activity (%)
# Protocol: as §3
# [13] = tested on: H1975 EGFR (L858R/T790M); assay: Colony formation assay, H1975; format: cell-based, human; settings: H1975, 10 days, read-out: EC50 colony formation
# Protocol: (§4) The clonogenic activity of the cells was determined by colony forming assays. Every six conditions of drugs were analyzed (10 μM, 1 μM, 0.1 μM, 0.01 μM, 0.001 μM, DMSO). The cells (H1975, PC-9, HCC827, H3255) were seeded at 600 cells/well in 2 ml medium in 6-well plates. Cells were maintained in a humidified 5% CO2 incubator at 37°C for 10 days without changing medium. […] The total number of colonies exceeding 50 cells per colony was counted and data were given as percentage with respect to the controls.
# [14] = tested on: HCC827 cells; assay: Cell cycle analysis (FACS), HCC827; format: cell-based, human; settings: HCC827, 24 h
# Protocol: (§5) The cells were fixed in 70% cold ethanol and incubated at −20°C overnight then stained with PI/RNase staining buffer (BD Pharmingen). Flow cytometry was performed using a FACS Calibur (BD), and results were analyzed by ModFit software.
# [15] = tested on: PC-9 EGFR del 19; assay: Colony formation assay, PC-9; format: cell-based, human; settings: PC-9, 10 days, read-out: EC50 colony formation
# Protocol: as §4
# [16] = tested on: PC-9 xenograft; assay: PC-9 xenograft mouse model; format: in vivo, Nude (Nu/Nu) mice
# Protocol: (§1) Tumor diameter was measured 3 times weekly. Tumor volumes (V) were calculated by the equation (V = length × width × width/2). ALL experiments and procedures followed the guidelines of the Institutional Animal Care and Use Committees of National Institue of Biological Sciences, Beijing.
# [17] = tested on: H1975 xenograft; assay: H1975 xenograft mouse model; format: in vivo, Nude (Nu/Nu) mice
# Protocol: as §1
# [18] = tested on: HCC827 EGFR Del 19; assay: Colony formation assay, HCC827; format: cell-based, human; settings: HCC827, 10 days, read-out: EC50 colony formation
# Protocol: as §4
# [19] = tested on: H3255 cells; assay: Cell cycle analysis (FACS), H3255; format: cell-based, human; settings: H3255, 24h
# Protocol: as §5
# [20] = tested on: H1975 cells; assay: Cell cycle analysis (FACS), H1975; format: cell-based, human
# Protocol: as §5
# [21] = tested on: H460 cells; assay: Cell cycle analysis (FACS), H460; format: cell-based, human; settings: H460, 48h
# Protocol: as §5
# [22] = tested on: H3255 EGFR L858R; assay: Colony formation assay, H3255; format: cell-based, human; settings: H3255, 10 days, read-out: EC50 colony formation
# Protocol: as §4
# [23] = tested on: PC-9 cells; assay: Cell cycle analysis (FACS), PC-9; format: cell-based, human; settings: PC-9, 24h
# Protocol: as §5
# [24] = tested on: Akt Thr308 and Ser473 phosphorylation in H1975; assay: Signaling pathway immunoblotting, H1975; format: cell-based, human; settings: H1975, 4 hours
# Excerpt: Antibodies were used at 1:1000.
# (§6) Cells were then washed with PBS and lysed in cell lysis buffer.
# [25] = tested on: PI3K kinase; assay: PI3K kinases ADP-Glo assay; format: biochemical; settings: Fig. S8
# [26] = tested on: EGFR Y1068 in PC-9, HCC827, and H3255; assay: EGFR Y1068 auto-phosphorylation in EGFR primary mutant cell lines; format: cell-based, human; settings: range over PC-9, HCC827, and H3255
# Excerpt: Antibodies were used at 1:1000.
# as §6
compound,measurement,setting,value
CCC(=O)N1CCC[C@@H](n2nc(-c3ccc(Oc4ccccc4)cc3)c3c(N)ncnc32)C1 [PCI-R],GI50,[1],> 10000 nM
same,GI50,[2],> 10000 nM
same,GI50,[3],> 10000 nM
same,GI50,[4],> 10000 nM
same,GI50,[5],> 10000 nM
same,GI50,[6],> 10000 nM
same,GI50,[7],> 10000 nM
same,GI50,[8],> 10000 nM
same,GI50,[9],> 10000 nM
same,GI50,[10],> 10000 nM
CC(=O)Nc1cccc(-n2c(=O)n(C3CC3)c(=O)c3c(Nc4ccc(I)cc4F)n(C)c(=O)c(C)c32)c1 [Trametinib],GI50,"[6]; Homo sapiens, NCI-H1975",~1100 nM
same,H1975 cell lines growth,[11]; single agent 0.014 μM,77.33
same,H1975 cell lines growth,[11]; single agent 0.04 μM,79.50
same,H1975 cell lines growth,[11]; single agent 0.37 μM,80.79
same,H1975 cell lines growth,[11]; single agent 1.1 μM,77.20
same,H1975 cell lines growth,[11]; single agent 10 μM,20.59
same,activity at 1.1 µM,[12],52.2%
"C=CC(=O)Nc1cccc(Oc2nc(Nc3ccc(N4CCN(C)CC4)cc3OC)ncc2Cl)c1 [WZ-4002, WZ4002]",GI50,"[1]; Homo sapiens, NCI-H2122",4500 nM
same,GI50,"[2]; Homo sapiens, NCI-H358",> 10000 nM
same,EC50,[13],12 nM
same,EC50,"[13]; Homo sapiens, NCI-H1975, 240 h",12.2 nM
same,GI50,"[3]; Homo sapiens, NCI-H3255",120 nM
same,%G0-G1,[14]; 0.3 μM,79.74%
same,%G2-M,[14]; 0.3 μM,5.62%
same,GI50,[4]; Homo sapiens,19 nM
same,GI50,[5]; Homo sapiens,> 10000 nM
same,GI50,"[6]; Homo sapiens, NCI-H1975",300 to 1000 nM
same,EC50,"[15]; Homo sapiens, 240 h",11.1 nM
same,EC50,[15],11 nM
same,anti-tumor activity (tumor growth),"[16]; PC-9 xenograft, 25 mg/kg/day QD oral gavage",almost completely suppressed the tumor growth
same,GI50,[7]; Homo sapiens,44 nM
same,anti-tumor activity (tumor growth),[17]; 25 mg/kg/day QD oral gavage,almost completely suppressed the tumor growth
same,EC50,[18],10 nM
same,EC50,"[18]; Homo sapiens, HCC827, 240 h",9.65 nM
same,%G0-G1,[19]; 0.3 μM,81.96%
same,%G2-M,[19]; 0.3 μM,9.90%
same,%G0-G1,"[20]; H1975, 12h, 0.3 μM",70.4%
same,%G2-M,"[20]; H1975, 12h, 0.3 μM",10.17%
same,%G0-G1,"[20]; H1975, 24h, 0.3 μM",80.35%
same,%G2-M,"[20]; H1975, 24h, 0.3 μM",7.63%
same,%G0-G1,"[20]; H1975, 48h, 0.3 μM",94.64%
same,%G2-M,"[20]; H1975, 48h, 0.3 μM",0.95%
same,%G0-G1,[21]; 0.3 μM,71.39%
same,%G2-M,[21]; 0.3 μM,5.15%
same,GI50,[8]; Homo sapiens,> 10000 nM
same,GI50,"[9]; Homo sapiens, A-431",1000 nM
same,GI50,"[10]; Homo sapiens, NCI-H460",4800 nM
same,EC50,[22],89 nM
same,EC50,"[22]; Homo sapiens, NCI-H3255, 240 h",89.1 nM
same,%G0-G1,[23]; 0.3 μM,87.95%
same,%G2-M,[23]; 0.3 μM,6.24%
"C=CC(=O)N1CCC[C@@H](n2nc(-c3ccc(Oc4ccccc4)cc3)c3c(N)ncnc32)C1 [ibrutinib, Ibrutinib]",GI50,"[1]; Homo sapiens, NCI-H2122",> 10000 nM
same,GI50,"[2]; Homo sapiens, NCI-H358",> 10000 nM
same,GI50,"[3]; Homo sapiens, NCI-H3255",110 nM
same,%G0-G1,[14]; 0.3 μM,78.26%
same,%G2-M,[14]; 0.3 μM,6.86%
same,%G0-G1,[14]; 3 μM,80.37%
same,%G2-M,[14]; 3 μM,5.91%
same,GI50,[4]; Homo sapiens,63 nM
same,phosphorylation of Akt Thr308 and Ser473,[24],significantly affected the phosphorylation of Akt Thr308 and Ser473
same,GI50,[5]; Homo sapiens,> 10000 nM
same,GI50,"[6]; Homo sapiens, NCI-H1975",1200 nM
same,H1975 cell lines growth,[11]; single agent 0.37 μM,43.77
same,H1975 cell lines growth,[11]; single agent 1.1 μM,34.56
same,anti-tumor activity (tumor progression),"[16]; PC-9 xenograft, 25, 50, 100 mg/Kg BID oral gavage, 22 days",tumor progression slow down efficacy
same,GI50,[7]; Homo sapiens,50 nM
same,anti-tumor activity (tumor progression),"[17]; 50 mg/kg BID oral gavage, 23-day",slowed down tumor progression
same,"anti-tumor activity, higher dosage versus 50 mg/kg BID",[17]; 100 mg/Kg BID,did not improve efficacy
same,%G0-G1,[19]; 0.3 μM,82.82%
same,%G2-M,[19]; 0.3 μM,9.73%
same,%G0-G1,[19]; 3 μM,89.05%
same,%G2-M,[19]; 3 μM,5.24%
same,%G0-G1,"[20]; H1975, 12h, 0.3 μM",69.44%
same,%G2-M,"[20]; H1975, 12h, 0.3 μM",10.92%
same,%G0-G1,"[20]; H1975, 12h, 3 μM",74.28%
same,%G0-G1,"[20]; H1975, 24h, 0.3 μM",81.96%
same,%G2-M,"[20]; H1975, 24h, 0.3 μM",6.76%
same,%G0-G1,"[20]; H1975, 24h, 3 μM",86.20%
same,%G2-M,"[20]; H1975, 24h, 3 μM",4.83%
same,%G0-G1,"[20]; H1975, 48h, 0.3 μM",92.06%
same,%G2-M,"[20]; H1975, 48h, 0.3 μM",2.43%
same,%G0-G1,"[20]; H1975, 48h, 3 μM",93.79%
same,%G2-M,"[20]; H1975, 48h, 3 μM",1.31%
same,%G0-G1,[21]; 0.3 μM,69.88%
same,%G2-M,[21]; 0.3 μM,5.02%
same,%G0-G1,[21]; 3 μM,70.49%
same,%G2-M,[21]; 3 μM,5.09%
same,GI50,[8]; Homo sapiens,> 10000 nM
same,GI50,"[9]; Homo sapiens, A-431",> 10000 nM
same,GI50,"[10]; Homo sapiens, NCI-H460",> 10000 nM
same,enzymatic activity against PI3K kinase,[25],did not have apparent enzymatic activity
same,%G0-G1,[23]; 0.3 μM,81.91%
same,%G2-M,[23]; 0.3 μM,10.77%
same,%G0-G1,[23]; 3 μM,84.9%
same,%G2-M,[23]; 3 μM,8.54%
same,EC50,[26],23 to 58 nM
same,activity at 1.1 µM,[12],52.3%

# From paper PMC4741607 (Oncotarget, 2015)
